Reference: publication PMC4956724, “Assessing the reliability of uptake and elimination kinetics modelling approaches for estimating bioconcentration factors in the freshwater invertebrate, Gammarus pulex” (The Science of the Total Environment, 2016)
Where two headings read alike, the source gives them in different places.

Legend:
G. pulex [1] = test system: G. pulex; set-up: method as in Meredith-Williams et al., 2012; conditions: ref Meredith-Williams et al., 2012; cited from earlier work
G. pulex [2] = conditions: in vivo
G. pulex [3] = conditions: cited from earlier work
G. pulex exoskeleton = conditions: both, Gammarus pulex, in vivo, pH 8.2
[4] = Control wells without G. pulex: loss of compound by sorption to the walls of culture plates; format: physicochemical; conditions: control wells with exposure media only
Gammarus pulex = assay: Toxicokinetic exposure (48 h uptake, 48 h depuration) of radio-labelled pharmaceuticals, first-order one-compartment model (OECD 305); conditions: for BCF, Simultaneous BCF: kinetic BCF (k1/k2); for BCF, Simultaneous BCF / k1 (uptake rate constant), Simultaneous BCF / k2 (elimination rate constant), Simultaneous BCF: simultaneous method; for BCF, Sequential BCF a / BCF, Sequential BCF b: kinetic BCF; for BCF, Sequential BCF a / k1, Sequential BCF a / k2, Sequential BCF a: sequential using curve fitting method; for BCF, Sequential BCF b / k1, Sequential BCF b / k2, Sequential BCF b: sequential using linear regression; for k1 (uptake rate constant), Simultaneous BCF / k2 (elimination rate constant), Simultaneous BCF: 1 μg·L^− 1 (diclofenac, ibuprofen 10 μg·L^− 1), 15 °C, pH 8.2
G. pulex [5] = assay: Re-examination of raw toxicokinetic data from Ashauer et al. (2010) using the OECD 305 modelling approach; conditions: 2010 re-modelled

Compound | BCF, Sequential BCF (G. pulex [2]; Gammarus pulex) | BCF, Simultaneous BCF (G. pulex [2]; Gammarus pulex) | k1, Sequential BCF (G. pulex [2]; Gammarus pulex) | k1, Simultaneous BCF (G. pulex [2]; Gammarus pulex) | k2, Sequential BCF (G. pulex [2]; Gammarus pulex) | k2, Simultaneous BCF (G. pulex [2]; Gammarus pulex) | BAF (G. pulex [3]; in vivo) | further results
CNCCC(Oc1ccc(C(F)(F)F)cc1)c1ccccc1 (centres unmarked) [fluoxetine] | – | – | – | – | – | – | – | BCF (G. pulex [1]): 185,900
O=[N+]([O-])c1ccc(CCl)cc1 [4-Nitrobenzyl chloride] | 214 L kg^− 1 | 147 L kg^− 1 | 259 L kg^− 1 day^− 1 | 666 L kg^− 1 day^− 1 | 1.212 day^− 1 | 4.540 day^− 1 | 185 | –
CNC(=C[N+](=O)[O-])NCCSCc1ccc(CN(C)C)o1 [Ranitidine, ranitidine] | – | – | – | – | – | – | – | Mean Compound Mass per Animal (G. pulex exoskeleton): 238 pg; Total Mass Compound on exoskeleton (G. pulex exoskeleton): 58 (n=1) pg
O=[N+]([O-])NC1=NCCN1Cc1ccc(Cl)nc1 [Imidacloprid] | 13 L kg^− 1 | 7 L kg^− 1 | 2 L kg^− 1 day^− 1 | 2 L kg^− 1 day^− 1 | 0.175 day^− 1 | 0.265 day^− 1 | 7 | –
CNC(=O)O/N=C/C(C)(C)SC [Aldicarb] | 3 L kg^− 1 | 2 L kg^− 1 | 3 L kg^− 1 day^− 1 | 16 L kg^− 1 day^− 1 | 0.936 day^− 1 | 10.419 day^− 1 | 2 | –
Clc1c(Cl)c(Cl)c(Cl)c(Cl)c1Cl [Hexachlorobenzene] | 4160 L kg^− 1 | 2505 L kg^− 1 | 631 L kg^− 1 day^− 1 | 553 L kg^− 1 day^− 1 | 0.152 day^− 1 | 0.221 day^− 1 | – | –
CCCCCCCCn1sc(Cl)c(Cl)c1=O [Sea nine] | – | – | – | – | – | – | 1732 | BCF, Sequential BCF (G. pulex [2]): 7696 L kg^− 1; BCF, Simultaneous BCF (G. pulex [2]): 2491 L kg^− 1; k1, Sequential BCF (G. pulex [2]): 950 L kg^− 1 day^− 1; k1, Simultaneous BCF (G. pulex [2]): 755 L kg^− 1 day^− 1; k2, Sequential BCF (G. pulex [2]): 0.123 day^− 1; k2, Simultaneous BCF (G. pulex [2]): 0.303 day^− 1
COCCc1ccc(OCC(O)CNC(C)C)cc1 (centres unmarked) [Metoprolol, metoprolol] | – | – | – | – | – | – | – | Mean Compound Mass per Animal (G. pulex exoskeleton): 74 pg; Total Mass Compound on exoskeleton (G. pulex exoskeleton): 14 (n=2) pg
CN(C)CCCN1c2ccccc2CCc2ccccc21 [Imipramine, imipramine] | – | – | – | – | – | – | – | loss by sorption to walls of exposure well ([4]; within 2 h): 27%; loss by sorption to walls of exposure well ([4]; within 48 h): 39%; increase in BCF, sequential versus simultaneous method (Gammarus pulex; in vivo): > 10 fold; BCF, Simultaneous BCF (Gammarus pulex): 212 L kg^− 1; BCF, Sequential BCF a (Gammarus pulex): 3811 L kg^− 1; BCF, Sequential BCF b (Gammarus pulex): 4533 L kg^− 1; BCF on average between curve fitting and linear regression approaches (Gammarus pulex; sequential method): ~ 4200; k1, Sequential BCF a (Gammarus pulex): 1.361 L kg^− 1 day^− 1; k1, Sequential BCF b (Gammarus pulex): 1.360 L kg^− 1 day^− 1; k1 (uptake rate constant), Simultaneous BCF (Gammarus pulex): 1.408 L kg^− 1 day^− 1; k2 (elimination rate constant), Simultaneous BCF (Gammarus pulex): 0.007 day^− 1; Maximum concentration sorbed to exoskeleton (G. pulex exoskeleton): 3%; Mean Compound Mass per Animal (G. pulex exoskeleton): 1921 pg; Total Mass Compound on exoskeleton (G. pulex exoskeleton): 50 (n=2) pg
COc1ccc(CC(C)NCC(O)c2ccc(O)c(NC=O)c2)cc1 (centres unmarked) [Formoterol, formoterol] | – | – | – | – | – | – | – | BCF, Simultaneous BCF (Gammarus pulex): 14 L kg^− 1; BCF, Sequential BCF a (Gammarus pulex): 18 L kg^− 1; BCF, Sequential BCF b (Gammarus pulex): 33 L kg^− 1; k1, Sequential BCF a (Gammarus pulex): 0.451 L kg^− 1 day^− 1; k2, Sequential BCF a (Gammarus pulex): 0.025 day^− 1; k1, Sequential BCF b (Gammarus pulex): 0.357 L kg^− 1 day^− 1; k2, Sequential BCF b (Gammarus pulex): 0.011 day^− 1; k1 (uptake rate constant), Simultaneous BCF (Gammarus pulex): 0.408 L kg^− 1 day^− 1; k2 (elimination rate constant), Simultaneous BCF (Gammarus pulex): 0.029 day^− 1
Clc1cccc(Cl)c1Cl [1,2,3-Trichlorobenzene] | 351 L kg^− 1 | 107 L kg^− 1 | 167 L kg^− 1 day^− 1 | 1142 L kg^− 1 day^− 1 | 0.475 day^− 1 | 10.648 day^− 1 | 191 | –
Oc1ccc(Cl)cc1Cl [2,4-Dichlorophenol] | 72,728 L kg^− 1 | 9050 L kg^− 1 | 750 L kg^− 1 day^− 1 | 600 L kg^− 1 day^− 1 | 0.010 day^− 1 | 0.066 day^− 1 | 4466 | –
Oc1cc(Cl)c(Cl)cc1Cl [2,4,5-Trichlorophenol] | 8327 L kg^− 1 | 3729 L kg^− 1 | 1091 L kg^− 1 day^− 1 | 941 L kg^− 1 day^− 1 | 0.131 day^− 1 | 0.252 day^− 1 | 2635 | –
C=CC(=O)OCC [Ethylacrylate] | – | – | – | – | – | – | – | BCF, Sequential BCF (G. pulex [5]; sequential method): 331 L kg^− 1; k1, Sequential BCF (G. pulex [5]; sequential method): 67 L kg^− 1 day^− 1; k2, Sequential BCF (G. pulex [5]; sequential method): 0.204 day^− 1; BCF, Simultaneous BCF (G. pulex [5]; simultaneous method): 69 L kg^− 1; k1, Simultaneous BCF (G. pulex [5]; simultaneous method): 110 L kg^− 1 day^− 1; k2, Simultaneous BCF (G. pulex [5]; simultaneous method): 1.594 day^− 1; BAF (G. pulex [3]; ref Ashauer et al. (2010)): 87
CCOC(=O)CC(SP(=S)(OC)OC)C(=O)OCC (centres unmarked) [Malathion] | 212 L kg^− 1 | 120 L kg^− 1 | 80 L kg^− 1 day^− 1 | 86 L kg^− 1 day^− 1 | 0.378 day^− 1 | 0.721 day^− 1 | 114 | –
CC(C)NCC(O)COc1cccc2ccccc12 (centres unmarked) [Propranolol, propranolol] | – | – | – | – | – | – | – | Mean Compound Mass per Animal (G. pulex exoskeleton): 336 pg; Total Mass Compound on exoskeleton (G. pulex exoskeleton): 44 (n=1) pg
CCOP(=S)(OCC)Oc1cc(C)nc(C(C)C)n1 [Diazinon] | 101 L kg^− 1 | 77 L kg^− 1 | 161 L kg^− 1 day^− 1 | 276 L kg^− 1 day^− 1 | 1.590 day^− 1 | 3.569 day^− 1 | 82 | –
CC(C)(C)NCC(O)c1cc(O)cc(O)c1 (centres unmarked) [Terbutaline, terbutaline] | – | – | – | – | – | – | – | BCF, Simultaneous BCF (Gammarus pulex): 12 L kg^− 1; BCF, Sequential BCF a (Gammarus pulex): 22 L kg^− 1; BCF, Sequential BCF b (Gammarus pulex): 19 L kg^− 1; k1, Sequential BCF a (Gammarus pulex): 0.135 L kg^− 1 day^− 1; k2, Sequential BCF a (Gammarus pulex): 0.006 day^− 1; k1, Sequential BCF b (Gammarus pulex): 0.117 L kg^− 1 day^− 1; k2, Sequential BCF b (Gammarus pulex): 0.006 day^− 1; k1 (uptake rate constant), Simultaneous BCF (Gammarus pulex): 0.136 L kg^− 1 day^− 1; k2 (elimination rate constant), Simultaneous BCF (Gammarus pulex): 0.011 day^− 1
Nc1ccc(Cl)cc1Cl [2,4-Dichloroaniline] | 179 L kg^− 1 | 50 L kg^− 1 | 70 L kg^− 1 day^− 1 | 140 L kg^− 1 day^− 1 | 0.392 day^− 1 | 2.830 day^− 1 | 56 | –
CNC(=O)Oc1cccc2c1OC(C)(C)C2 [Carbofuran] | 72 L kg^− 1 | 68 L kg^− 1 | 10 L kg^− 1 day^− 1 | 10 L kg^− 1 day^− 1 | 0.140 day^− 1 | 0.146 day^− 1 | 65 | –
O=C(O)Cc1ccccc1Nc1c(Cl)cccc1Cl [Diclofenac, diclofenac] | – | – | – | – | – | – | – | BCF, Simultaneous BCF (Gammarus pulex): 14 L kg^− 1; BCF, Sequential BCF a (Gammarus pulex): 27 L kg^− 1; BCF, Sequential BCF b (Gammarus pulex): 21 L kg^− 1; k1, Sequential BCF a (Gammarus pulex): 0.253 L kg^− 1 day^− 1; k2, Sequential BCF a (Gammarus pulex): 0.009 day^− 1; k1, Sequential BCF b (Gammarus pulex): 0.269 L kg^− 1 day^− 1; k2, Sequential BCF b (Gammarus pulex): 0.013 day^− 1; k2 (elimination rate constant), Simultaneous BCF (Gammarus pulex): 0.020 day^− 1; Maximum concentration sorbed to exoskeleton (G. pulex exoskeleton): 18%; Mean Compound Mass per Animal (G. pulex exoskeleton): 2070 pg; Total Mass Compound on exoskeleton (G. pulex exoskeleton): 368 (n=4) pg
